Data published in PubChem BioAssay (NCI).
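Here, GI50 denotes the concentration required for 50% inhibition of growth. TGI marks complete inhibition of growth.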

What was measured:
Experiment in all cases: DTP human tumour cell line panel, 384-well format
[1] = test system: NCI-H23 lung
[2] = test system: NCI-H322M lung
[3] = test system: NCI-H460 NSCLC
[4] = test system: NCI-H522 lung
[5] = test system: NCI/ADR-RES ovarian
[6] = test system: OVCAR-3 ovarian
[7] = test system: OVCAR-4 ovarian
[8] = test system: OVCAR-5 ovarian
[9] = test system: OVCAR-8 ovarian
[10] = test system: PC-3 prostate
[11] = test system: RPMI-8226 leukemia
[12] = test system: RXF 393 renal
[13] = test system: SF-268 CNS
[14] = test system: SF-295 CNS
[15] = test system: SF-539 CNS
[16] = test system: SK-MEL-2 melanoma
[17] = test system: SK-MEL-28 melanoma
[18] = test system: SK-MEL-5 melanoma
[19] = test system: SK-OV-3 ovarian
[20] = test system: SN12C renal
[21] = test system: SNB-19 CNS
[22] = test system: SR leukemia
[23] = test system: SW-620 colon
[24] = test system: T-47D breast
[25] = test system: TK-10 renal
[26] = test system: U251 glioblastoma
[27] = test system: UACC-257 melanoma
[28] = test system: UACC-62 melanoma
[29] = test system: UO-31 renal

CN(C)CC[C@H](CSc1ccccc1)Nc1ccc(S(=O)(=O)NC(=O)c2ccc(N3CCN(Cc4ccccc4-c4ccc(Cl)cc4)CC3)cc2)cc1[N+](=O)[O-]
TGI [1]: 7.46 µM
GI50 [2]: 2.34 µM
TGI [2]: 5.7 µM
GI50 [3]: 3.65 µM
TGI [3]: 14.3 µM
GI50 [4]: 4.36 µM
TGI [4]: 60.7 µM
GI50 [5]: > 100 µM
TGI [5]: > 100 µM
GI50 [6]: 1.63 µM
TGI [6]: 3.37 µM
GI50 [7]: 3 µM
TGI [7]: 9.08 µM
GI50 [8]: 2.01 µM
TGI [8]: 4.19 µM
GI50 [9]: 2.29 µM
TGI [9]: 6.24 µM
GI50 [10]: 1.78 µM
TGI [10]: 3.48 µM
GI50 [11]: 0.239 µM
TGI [11]: 0.444 µM
GI50 [12]: 0.258 µM
TGI [12]: 1.4 µM
GI50 [13]: 3.17 µM
TGI [13]: > 100 µM
GI50 [14]: 2.46 µM
TGI [14]: 6.83 µM
GI50 [15]: 5.46 µM
TGI [15]: 100 µM
GI50 [16]: 1.64 µM
TGI [16]: 3.64 µM
GI50 [17]: 2.77 µM
TGI [17]: 6.76 µM
GI50 [18]: 1.3 µM
TGI [18]: 2.64 µM
GI50 [19]: 2.31 µM
TGI [19]: 6.3 µM
GI50 [20]: 2.26 µM
TGI [20]: 5.79 µM
GI50 [21]: 3.11 µM
TGI [21]: > 100 µM
GI50 [22]: 0.223 µM
TGI [22]: 1.48 µM
GI50 [23]: 3.52 µM
TGI [23]: 12.2 µM
GI50 [24]: 2.41 µM
TGI [24]: 9.13 µM
GI50 [25]: 1.98 µM
TGI [25]: 4.79 µM
GI50 [26]: 2.56 µM
TGI [26]: 7.35 µM
GI50 [27]: 1.49 µM
TGI [27]: 3.71 µM
GI50 [28]: 3.02 µM
TGI [28]: 10.5 µM
GI50 [29]: 1.79 µM
TGI [29]: 3.58 µM
